{"source": "patent US20230172984A1", "about": "“CLEARANCE OF SENESCENT CELLS BY ACTIVATION OF iNKT CELLS” (THE REGENTS OF THE UNIVERSITY OF CALIFORNIA, priority 2020, published 2023)", "assay_type_in_all_cases": "in vivo, mouse", "key": {"[1]": {"assay": "Bleomycin lung injury survival study", "details": "bleomycin 4 U/kg intratracheal, α-GalCer or vehicle at day 5, vs vehicle-injected mice; FIG. 4E", "source_text": "Bleomycin lung injury. For measurement of lung collagen, 3 U/kg Bleomycin was instilled intratracheally, with injection of α-GalCer or vehicle at day 10, followed by lung harvest for hydroxyproline assay at 20 days. For the survival study, 4 U/kg Bleomycin was instilled intratracheally, with injection of α-GalCer or vehicle at day 5."}, "[2]": {"tested_on": "senescent CD45^− lung cells", "assay": "Bleomycin-induced lung injury model, C12FDG assay on lung cells", "description": "MATERIALS AND METHODS. Mouse husbandry. All procedures involving mice were performed according to the IACUC standards following ethics approval by the animal committee at the University of California, San Francisco. Male C57BL6/J on chow or HFD fed mice. HFD mice were fed a high-fat diet (60% kcal from fat) from 6 weeks until 22 weeks of age. All experiments on HFD mice were performed at 22-24 weeks total age (16-18 weeks on HFD). Age-matched male C57BL6/J mice on standard rodent chow diet were used as controls. For the lung injury model, 10-week-old male C57BL/6J mice were used. The animals were divided into three groups: the control group, the injured group, and the α-GalCer treated group. The animals in the control group received vehicle only (i.p.) on day 10. […] RBCs in cell pellet were lysed by resuspending in 1 mL lysis buffer for 3 min and was neutralized using 10 mL of sterile DMEM medium, centrifuged and the cell pellet resuspended in 1 ml of sterile DMEM containing DNase I. Viability of the cells was analyzed using Vi-Cell XR cell viability analyzer. C12FDG flow cytometry assay. eWAT SVF cells isolated and counted as described above were adjusted to 3×10^6 cells/ml in complete culture media and incubated with 33 μM C12FDG for 1 hr in a 37° C. water bath. […] Samples were analyzed on an Attune acoustic focusing cytometer. […] Data were analyzed with FlowJo (v. 10). […]"}, "[3]": {"assay": "Metabolic measurements in HFD-fed mice (fasting glucose, GTT, HOMA-IR)", "details": "10 days after α-GalCer injection", "description": "α-GalCer activation of iNKT cells. iNKT cells were activated in vivo using α-GalCer as described in Peralbo et al., 2006. Decreased frequency and proliferative response of invariant Vα24Vβ11 natural killer T (iNKT) cells in healthy elderly. Biogerontology 7, 483-492. Briefly, HFD mice were i.p. injected with 200 μl of a 10 μg/ml α-GalCer solution (2 μg total) made up in 5.6% Sucrose, 5% Tween-20. On day 3 or 4 post-injection, mice were euthanized for various experiments, as indicated.\nMetabolic measurements. Seventeen male HFD-fed C57BL6J mice were divided into the vehicle (n=8) and the α-GalCer treated group (n=9). Age-matched male C57BL6/J mice on a standard rodent chow diet were used as controls (n=8). A glucose tolerance test was performed 10 days after α-GalCer injection. Mice were fasted overnight (14 h) before being injecting 2 g/kg glucose intraperitoneally. Blood glucose was measured at 0, 15, 30, 60, and 120 min after glucose injection using a glucometer."}}}
{"smiles": "CCCCCCCCCCCCCCCCCCCCCCCCCC(=O)N[C@@H](CO[C@H]1O[C@H](CO)[C@H](O)[C@H](O)[C@H]1O)[C@H](O)[C@H](O)CCCCCCCCCCCCCC", "note": "[GalCer, alpha-Galactosylceramide]", "values": [{"measurement": "mortality (Kaplan Meier survival)", "setting": "[1]", "result": "significantly reduced"}, {"measurement": "number of CD45^− C12FDG^+ lung cells", "setting": "[2]; bleomycin 3 U/kg day 0, α-GalCer 2 μg/mouse i.p. day 10, lungs harvested day 14, FIG. 4A", "result": "decreased the number of such CD45^− C12FDG^+ lung cells to levels on par with those in the lungs of uninjured control mice"}, {"measurement": "epithelial and mesenchymal senescent cells in lung", "setting": "[2]; bleomycin-injured mice treated with GalCer", "result": "both epithelial and mesenchymal senescent cells were affected"}, {"measurement": "glucose tolerance (GTT)", "setting": "[3]; 2 g/kg glucose i.p. after 14 h fast, vs vehicle", "result": "improved glucose tolerance"}, {"measurement": "insulin sensitivity (HOMA-IR)", "setting": "[3]; vs vehicle", "result": "improved insulin sensitivity"}, {"measurement": "fasting glucose", "setting": "[3]; vs vehicle-treated HFD-fed mice", "result": "significantly lower fasting glucose"}]}
